Data taken from the CheMixHub ionic liquid set.

Assay: xn = mol fraction of the nth substance listed

CC(C)[C@H](NC(=O)CN)C(=O)O + CCCCCCCCCCCC[N+](C)(C)Cc1ccccc1.[Cl-] + O
electrical conductivity [S/m], 101 kPa
Settings | 293.15 K | 298.15 K | 303.15 K | 308.15 K | 313.15 K
x1 = 0.0008948, x2 = 0 | 0.00327 | 0.00375 | 0.00427 | 0.00485 | 0.0055
x1 = 0.001799, x2 = 0 | 0.00533 | 0.00608 | 0.0069 | 0.0078 | 0.00879

c1c[nH]cn1 + CCCCCC[N+]1(C)CCCC1.O=S(=O)([N-]S(=O)(=O)C(F)(F)F)C(F)(F)F
101.33 kPa, x2 = 0.5
Settings | viscosity [mPa·s]
343.15 K | 11
353.15 K | 8

CCCCCC[n+]1ccn(C)c1.[Cl-] + CCCCCC[n+]1ccn(C)c1.F[B-](F)(F)F
101 kPa
Settings | electrical conductivity [S/m] | viscosity [mPa·s]
303 K, x1 = 0.2 | 0.0846 | –
303 K, x1 = 0.4 | 0.0415 | –
303 K, x1 = 0.6 | 0.0196 | –
303 K, x1 = 0.8 | 0.00783 | –
303 K, x1 = 1 | 0.00318 | –
303.15 K, x1 = 0.2 | – | 380
303.15 K, x1 = 0.4 | – | 800
303.15 K, x1 = 0.6 | – | 1835
308 K, x1 = 0.2 | 0.113 | –
308 K, x1 = 0.4 | 0.0581 | –
308 K, x1 = 0.6 | 0.029 | –
308 K, x1 = 0.8 | 0.0123 | –
308 K, x1 = 1 | 0.00531 | –
308.15 K, x1 = 0.2 | – | 275
308.15 K, x1 = 0.4 | – | 550
308.15 K, x1 = 0.6 | – | 1194
313 K, x1 = 0.2 | 0.147 | –
313 K, x1 = 0.4 | 0.0791 | –
313 K, x1 = 0.6 | 0.0413 | –
313 K, x1 = 0.8 | 0.0186 | –
313 K, x1 = 1 | 0.00852 | –
313.15 K, x1 = 0.2 | – | 204
313.15 K, x1 = 0.4 | – | 390
313.15 K, x1 = 0.6 | – | 810
313.15 K, x1 = 0.8 | – | 1892
318 K, x1 = 0.2 | 0.19 | –
318 K, x1 = 0.4 | 0.106 | –
318 K, x1 = 0.6 | 0.0575 | –
318 K, x1 = 0.8 | 0.0272 | –
318 K, x1 = 1 | 0.0133 | –
318.15 K, x1 = 0.2 | – | 156
318.15 K, x1 = 0.4 | – | 283
318.15 K, x1 = 0.6 | – | 560
318.15 K, x1 = 0.8 | – | 1237
323 K, x1 = 0.2 | 0.24 | –
323 K, x1 = 0.4 | 0.14 | –
323 K, x1 = 0.6 | 0.0791 | –
323 K, x1 = 0.8 | 0.0392 | –
323 K, x1 = 1 | 0.0202 | –
323.15 K, x1 = 0.2 | – | 122
323.15 K, x1 = 0.4 | – | 213
323.15 K, x1 = 0.6 | – | 400
323.15 K, x1 = 0.8 | – | 840
323.15 K, x1 = 1 | – | 1879
328 K, x1 = 0.2 | 0.299 | –
328 K, x1 = 0.4 | 0.179 | –
328 K, x1 = 0.6 | 0.106 | –
328 K, x1 = 0.8 | 0.0547 | –
328 K, x1 = 1 | 0.0295 | –
328.15 K, x1 = 0.2 | – | 98
328.15 K, x1 = 0.4 | – | 163
328.15 K, x1 = 0.6 | – | 296
328.15 K, x1 = 0.8 | – | 580
328.15 K, x1 = 1 | – | 1228
333 K, x1 = 0.2 | 0.368 | –
333 K, x1 = 0.4 | 0.227 | –
333 K, x1 = 0.6 | 0.139 | –
333 K, x1 = 0.8 | 0.0747 | –
333 K, x1 = 1 | 0.0423 | –
333.15 K, x1 = 0.2 | – | 78
333.15 K, x1 = 0.4 | – | 128
333.15 K, x1 = 0.6 | – | 220
333.15 K, x1 = 0.8 | – | 420
333.15 K, x1 = 1 | – | 840
